≈ marks a conversion by molar mass, not a printed value. Where “and” joins values, the source holds several entries; their conditions need not be identical. Equal values may be shown once.
Legend:
Experiment in all cases: ≥ marks a high value that may be exact or a test limit, other limits are often not marked, values filed in µg/mL are converted to µM
[1] = test system: Candida albicans ATCC 10231
Botrytis cinerea = test system: Botrytis cinerea
[2] = test system: Escherichia coli ATCC 11775
[3] = test system: Staphylococcus aureus ATCC 12600
Staphylococcus aureus = test system: Staphylococcus aureus
Pseudomonas aeruginosa = test system: Pseudomonas aeruginosa
[4] = test system: Mycobacterium tuberculosis H37Rv
[5] = test system: Staphylococcus aureus ATCC 25923
[6] = test system: Enterococcus faecalis ATCC 19433
[7] = test system: Yersinia pseudotuberculosis YPIII
Bacillus megaterium Bm11 = test system: Bacillus megaterium Bm11
[8] = test system: Escherichia coli ATCC 25922
Staphylococcus capitis 1 = test system: Staphylococcus capitis 1
[9] = test system: Staphylococcus aureus Cowan 1
[10] = test system: Pseudomonas corrugata DSM 7228
[11] = test system: Pectobacterium carotovorum subsp. carotovorum DSM 30168
[12] = test system: Pseudomonas syringae pv. tomato DC3000
[13] = test system: Pseudomonas syringae pv. syringae DSM 10604
[14] = test system: Staphylococcus aureus 90857
[15] = test system: Clavibacter michiganensis subsp. michiganensis DSM 46294
[16] = test system: Xanthomonas vesicatoria DSM 50861
[17] = test system: Staphylococcus aureus RN4220
[18] = test system: Salmonella enterica subsp. enterica serovar Typhimurium LT2
[19] = test system: Pseudomonas fluorescens NCIMB 9046
[20] = test system: Staphylococcus aureus SA113
[21] = test system: Escherichia coli NCIMB 11843
[22] = test system: Staphylococcus aureus NCTC 8325-4
[23] = test system: Staphylococcus aureus Newman
[24] = test system: Staphylococcus aureus RF122
[25] = test system: Klebsiella pneumoniae NCIMB 13218
[26] = test system: Cronobacter sakazakii DPC 6440
[27] = test system: Cronobacter muytjensii ATCC 51329
[28] = test system: Cronobacter sakazakii DSM 4485
[29] = test system: Cronobacter sakazakii ATCC BAA-894
[30] = test system: Klebsiella pneumoniae 913
Acinetobacter baumannii = test system: Acinetobacter baumannii
[31] = test system: Enterobacter cloacae 6780
[32] = test system: Pseudomonas aeruginosa 4677
Escherichia coli 170 = test system: Escherichia coli 170
[33] = test system: Enterobacter cloacae 2524
[34] = test system: Escherichia coli DH5alpha
[35] = test system: Staphylococcus aureus ATCC 9144
[36] = test system: Escherichia coli ATCC 10536

CC(C)C[C@H](NC(=O)[C@H](CC(C)C)NC(=O)[C@H](CO)NC(=O)[C@H](CCC(N)=O)NC(=O)[C@@H](NC(=O)[C@@H](NC(=O)[C@H](CCCCN)NC(=O)[C@@H]1CCCN1C(=O)[C@H](CC(=O)O)NC(=O)[C@@H](N)CC(C)C)C(C)C)C(C)C)C(N)=O [LDPKVVQSLL]
MIC [1]: > 200 µM | MIC (Botrytis cinerea): ≥ 200 µM | MIC [2]: ≥ 200 µM | MIC [3]: ≥ 200 µM

CC[C@H](C)[C@H](NC(=O)[C@H](CCCN=C(N)N)NC(=O)[C@H](Cc1c[nH]c2ccccc12)NC(=O)[C@@H](NC(=O)[C@@H](NC(=O)[C@H](CC(C)C)NC(=O)[C@H](Cc1c[nH]c2ccccc12)NC(=O)[C@H](CCCN=C(N)N)NC(=O)[C@H](CCC(N)=O)NC(=O)[C@@H](N)C(C)C)[C@@H](C)CC)C(C)C)C(=O)N[C@@H](CCCN=C(N)N)C(=O)N[C@@H](CCCCN)C(N)=O [VQRWLIVWRIRK]
MIC (Staphylococcus aureus): 3.02 µM (≈ 5 µg/mL) | MIC (Pseudomonas aeruginosa): 11.5 µM (≈ 19 µg/mL) | MIC [4]: 17.7 µM (≈ 29.3 µg/mL) | MIC [5]: 77.4 µM (≈ 128 µg/mL) | MIC [6]: ≥ 38.7 µM

CC[C@H](C)[C@H](NC(=O)[C@H](CC(C)C)NC(=O)[C@@H]1CCCN1C(=O)[C@H](CC(C)C)NC(=O)[C@@H](N)Cc1ccccc1)C(=O)NCC(=O)N[C@@H](CCCN=C(N)N)C(=O)N[C@H](C(=O)N[C@@H](CC(C)C)C(=O)N[C@@H](CO)C(=O)NCC(=O)N[C@@H](C)C(=O)N[C@@H](CC(C)C)C(N)=O)C(C)C [FLPLIGRVLSGAL]
MIC [1]: 20 µM (≈ 27.1 µg/mL) | MIC [7]: ≥ 40 µM | MIC (Bacillus megaterium Bm11): 20 µM (≈ 27.1 µg/mL) | MIC [8]: > 40 µM | MIC (Staphylococcus capitis 1): ≥ 40 µM | MIC [9]: ≥ 40 µM

CC[C@H](C)[C@H](NC(=O)[C@H](CC(C)C)NC(=O)[C@H](CCCCN)NC(=O)[C@@H](NC(=O)[C@@H](NC(=O)[C@H](CC(C)C)NC(=O)[C@H](CCCCN)NC(=O)[C@H](CC(C)C)NC(=O)[C@@H](NC(=O)[C@H](CCCCN)NC(=O)[C@@H](NC(=O)[C@H](CC(C)C)NC(=O)[C@H](CCCCN)NC(=O)[C@H](CCCN=C(N)N)NC(=O)[C@H](CCCN=C(N)N)NC(=O)[C@@H](N)CCCCN)[C@@H](C)CC)[C@@H](C)CC)[C@@H](C)CC)[C@@H](C)CC)C(=O)N[C@@H](CCCN=C(N)N)C(=O)N[C@@H](CCCCN)C(=O)N[C@@H](CCCCN)C(=O)N[C@@H](CCCN=C(N)N)C(N)=O [KRRKLIKILKLIIKLIRKKR]
MIC [10]: 0.977 µM (≈ 2.5 µg/mL) | MIC [11]: 3.91 µM (≈ 10 µg/mL) | MIC [12]: 0.977 µM (≈ 2.5 µg/mL) | MIC [13]: 0.391 µM (≈ 1 µg/mL) | MIC [14]: 2 µM (≈ 5.11 µg/mL) | MIC [15]: 0.0391 µM (≈ 0.1 µg/mL) | MIC [16]: 0.0391 µM (≈ 0.1 µg/mL)

CC(C)C[C@H](NC(=O)[C@H](CC(C)C)NC(=O)[C@H](CC(N)=O)NC(=O)[C@H](CCC(=O)O)NC(=O)[C@H](CC(N)=O)NC(=O)[C@H](C)NC(=O)[C@@H](N)C(C)C)C(=O)N[C@@H](CCCN=C(N)N)C(=O)O [VANENLLR]
MIC [17]: ≥ 2500 µM | MIC [18]: ≥ 2500 µM | MIC [19]: ≥ 2500 µM | MIC [20]: ≥ 2500 µM | MIC [21]: ≥ 2500 µM | MIC [22]: ≥ 1250 µM | MIC [23]: ≥ 2500 µM | MIC [24]: ≥ 2500 µM | MIC [25]: ≥ 2500 µM | MIC [26]: ≥ 1250 µM | MIC [27]: ≥ 1250 µM | MIC [28]: ≥ 1250 µM | MIC [29]: ≥ 2500 µM

CC[C@H](C)[C@H](NC(=O)[C@H](CC(C)C)NC(=O)[C@H](CCCN=C(N)N)NC(=O)[C@H](CCCCN)NC(=O)[C@@H](NC(=O)[C@@H](NC(=O)[C@H](CCCCN)NC(=O)[C@@H](NC(=O)[C@H](CCCCN)NC(=O)[C@H](CCCCN)NC(=O)[C@H](CCCCN)NC(=O)[C@@H](N)CCCN=C(N)N)[C@@H](C)CC)[C@@H](C)CC)[C@@H](C)CC)C(N)=O [RKKKIKIIKRLI]
MIC [10]: 1.63 µM (≈ 2.5 µg/mL) | MIC [11]: 6.51 µM (≈ 9.99 µg/mL) | MIC [12]: 6.51 µM (≈ 9.99 µg/mL) | MIC [13]: 0.163 µM (≈ 0.25 µg/mL) | MIC [14]: ≥ 62.5 µM | MIC [15]: 3.25 µM (≈ 5 µg/mL) | MIC [16]: 1.63 µM (≈ 2.5 µg/mL)

CC(C)C[C@H](NC(=O)[C@H](CCCCN)NC(=O)[C@H](CCC(N)=O)NC(=O)[C@@H](NC(=O)[C@@H](NC(=O)[C@H](CC(N)=O)NC(=O)[C@H](C)NC(=O)[C@@H](NC(=O)[C@@H](N)CCCCN)C(C)C)[C@@H](C)O)C(C)C)C(=O)N[C@@H](CCCCN)C(=O)N[C@@H](CCCN=C(N)N)C(=O)N[C@@H](CCCCN)C(=O)N[C@@H](C)C(=O)N[C@@H](CCCCN)C(=O)N[C@@H](CC(N)=O)C(=O)N[C@@H](C)C(=O)N[C@H](C(=O)N[C@@H](C)C(=O)O)C(C)C [KVANTVQKLKRKAKNAVA]
MIC [30]: ≥ 50 µM | MIC [8]: > 50 µM | MIC (Acinetobacter baumannii): ≥ 50 µM | MIC [31]: ≥ 50 µM | MIC [32]: ≥ 50 µM | MIC (Escherichia coli 170): ≥ 50 µM | MIC [33]: 12.5 µM (≈ 24.6 µg/mL)

CC[C@H](C)[C@H](NC(=O)[C@@H](NC(=O)[C@@H]1CCCN1C(=O)[C@H](CO)NC(=O)[C@H](C)NC(=O)[C@H](CCCCN)NC(=O)[C@H](CCCCN)NC(=O)[C@H](Cc1ccccc1)NC(=O)[C@H](C)NC(=O)[C@H](CCCCN)NC(=O)[C@H](CCCCN)NC(=O)[C@H](Cc1ccccc1)NC(=O)[C@H](CCCCN)NC(=O)[C@H](CCCCN)NC(=O)[C@H](CCCN=C(N)N)NC(=O)[C@H](Cc1ccccc1)NC(=O)[C@H](CCCN=C(N)N)NC(=O)[C@H](CCCCN)NC(=O)[C@H](Cc1ccccc1)NC(=O)[C@H](CCCN=C(N)N)NC(=O)CN)C(C)C)C(=O)N1CCC[C@H]1C(=O)N[C@@H](CC(C)C)C(=O)N[C@@H](CC(C)C)C(=O)N[C@@H](Cc1cnc[nH]1)C(=O)N[C@@H](CC(C)C)C(N)=O [GRFKRFRKKFKKAFKKASPVIPLLHL]
MIC [34]: 2.9 µM (≈ 9.11 µg/mL) | MIC [35]: 2.7 µM (≈ 8.48 µg/mL) | MIC [36]: 2.7 µM and 7.2 µM

Reference: DBAASP
